Reference: patent publication US20090130165A1, “MIF Inhibitors” (Cortical Pty Ltd, priority 2005, published 2009)

Assays:
[1] = target: T1, Recombinant human MIF protein (Homo sapiens, UniProt P14174); test: Inhibition of MIF tautisomerase activity (L-dopachrome); format: biochemical; conditions: mean±standard deviation of 2-4 experiments; for inhibition at 50 µM: 50 uM compound; for inhibition at 100 µM: 100 uM compound
T1 sequence (P14174 2-115 limits assumed): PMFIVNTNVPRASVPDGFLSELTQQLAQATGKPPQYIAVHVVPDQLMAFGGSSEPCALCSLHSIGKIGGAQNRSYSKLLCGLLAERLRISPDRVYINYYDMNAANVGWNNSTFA
Experimental: MIF protein has the ability in vitro to catalyze the tautisomerization of dopachrome^(15).
Recombinant human MIF protein was pre-incubated with compounds as indicated prior to the addition of L-dopachrome substrate. Tautomerase activity was determined by measurement of die decrease in absorbance at 475 nm after 2 min. […]

melting point | inhibition at 50 µM [1] [%] | inhibition at 100 µM [1] [%] | SMILES
105 to 108 °C |  |  | O=C1Cc2cc(C(=O)CSCCCCCCO)ccc2N1 [Compound 9, 5-(((6-hydroxyhexyl)thio)acetyl)-1,3-dihydro-2H-indol-2-one]
 | 2 ± 3 | 4 ± 6 | O=C(O)CCSCC(=O)c1cc2[nH]c(=O)[nH]c2cc1Cl [Compound 26, 3-((2-(6-chloro-2-oxo-2,3-dihydro-1H-benzimidazol-5-yl)-2-oxoethyl)thio)propanoic acid]
195 to 197 °C | 12 ± 11 | 27 ± 16 | O=C(O)CCSCC(=O)c1cc2sc(=O)[nH]c2cc1Cl [Compound 30, 3-((2-(5-chloro-2-oxo-2,3-dihydro-1,3-benzothiazol-6-yl)-2-oxoethyl)thio)propanoic acid]
80 to 81 °C | 15 ± 6 | 34 ± 12 | CCCCSCC(=O)c1ccc2c(c1)n(C)c(=O)n2C [Compound 24, 5-((butylthio)acetyl)-1,3-dimethyl-1,3-dihydro-2H-benzimidazol-2-one]
320 °C (dec.) |  |  | O=C(CSCCO)c1ccc2[nH]c(=O)[nH]c2c1 [Compound 7, 5-(((2-hydroxyethyl)thio)acetyl)-1,3-dihydro-2H-benzimidazol-2-one]
148 to 150 °C | 12 ± 6 | 27 ± 6 | Cn1c(=O)n(C)c2cc(C(=O)CSCCC(=O)O)c(Cl)cc21 [Compound 28, 3-((2-(6-chloro-1,3-dimethyl-2-oxo-2,3-dihydro-1H-benzimidazol-5-yl)-2-oxoethyl)thio)propanoic acid]
120 to 121 °C | 4 ± 1 | 11 ± 4 | Cn1c(=O)sc2cc(C(=O)CSCCC(=O)O)c(Cl)cc21 [Compound 32, 3-((2-(5-chloro-3-methyl-2-oxo-2,3-dihydro-1,3-benzothiazol-6-yl)-2-oxoethyl)thio)propanoic acid]
 | 28 ± 17 | 44 ± 12 | CCCCSCC(=O)c1cc2c(cc1Cl)n(C)c(=O)n2C [Compound 27, 5-((butylthio)acetyl)-6-chloro-1,3-dimethyl-1,3-dihydro-2H-benzimidazol-2-one]
174 to 176 °C | 0 | 3 ± 2 | Cn1c(=O)n(C)c2cc(C(=O)CSCCC(=O)O)ccc21 [Compound 23, 3-((2-(1,3-dimethyl-2-oxo-2,3-dihydro-1H-benzimidazol-5-yl)-2-oxoethyl)thio) propanoic acid]
199 to 201 °C | 4 ± 3 | 12 ± 4 | CCCCSCC(=O)c1cc2[nH]c(=O)[nH]c2cc1Cl [Compound 25, 5-((butylthio)acetyl)-6-chloro-1,3-dihydro-2H-benzimidazol-2-one]
 | 2 ± 3 | 8 ± 8 | CCCCSCC(=O)c1cc2sc(=O)n(C)c2cc1Cl [Compound 31, 6-((butylthio)acetyl)-5-chloro-3-methyl-1,3-benzothiazol-2(3H)-one]
102.5 to 115 °C | 24 ± 1 | 42 ± 9 | CCCCSCC(=O)c1cc2sc(=O)[nH]c2cc1Cl [Compound 29, 6-((butylthio)acetyl)-5-chloro-1,3-benzothiazol-2(3H)-one]
177 to 178.5 °C |  |  | COC(=O)CSCC(=O)c1ccc2[nH]c(=O)[nH]c2c1 [Compound 5, methyl ((2-oxo-2-(2-oxo-2,3-dihydro-1H-benzimidazol-5-yl)ethyl)thio)acetate]
211 to 213 °C | 4 ± 6 | 4 ± 7 | CCCCSCC(=O)c1ccc2[nH]c(=O)[nH]c2c1 [Compound 22, 5-((butylthio)acetyl)-1,3-dihydro-2H-benzimidazol-2-one]
